{
  "source": "paper PMC8752738",
  "about": "“A propolis-derived small molecule ameliorates metabolic syndrome in obese mice by targeting the CREB/CRTC2 transcriptional complex” (Nature Communications, 2022)",
  "key": {"[1]": {"assay": "Glucose, insulin, and pyruvate tolerance tests", "type": "in vivo, mouse", "set-up": "AUC of IGTT, Total Area / AUC analysis of ITT, Total Area / AUC of ITT, group mean / AUC of PTT, group mean / IGTT, Mean Diff. APC - VEH / IGTT, group mean (Mean 1, APC): unit not given beside the values", "description": "After overnight fasting, mice were i.p. injected or treated orally with D-glucose (1–2 g/kg) for glucose-tolerance tests (IGTT or OGTT) or injecting with sodium pyruvate (1–2 g/kg) for pyruvate tolerance tests (PTT). Insulin-tolerance tests (ITT) were performed by i.p. injection of insulin (1 U/kg) 2-h after food removal. […]"}, "mouse Per2 promoter": {"tested_on": "mouse Per2 promoter", "assay": "Per2-Luc reporter (CREB/CRTC2-mediated transcription of PER2)", "type": "cell-based", "conditions": "preliminary research", "description": "SREBP1 (m-SREBP1) and fat acid synthase (FASN) in glucagon- insulin treated cells, […]\nmTORC1 activity at the same time. mTORC1 h as been reported to enh ance SREBP1c mediated lipogenesis m ainly by increasing the mat uration of SREBP1c prot eins (2015, The CREB coactivator CRTC2 controls hepatic lipid metabolism by regulating S REBP1, Nature, […]\nAug 13;524(7564):243- 6.). […]\nhyperactivation caused by liver specific TSC1 deletion is insufficient to induce SREBP1c activation and de novo lipogenesis in the liver of high fat diet fed mice (Akt stimulates hepatic SREBP1c and lipogenesis through parallel mTORC1- dependent and independent pathways. Cell Metabolism . 2011. 14.1: 21- 32). Considered the requirement of TSC1 for PER2 to inhibit mTORC1 activity, the reduction of PER2 by APC may not be sufficient to induce SREBP1c activati on. Moreover, ou r dat a su ggest that APC redu ces the trans cription of SREBP1c in vivo (Figures 5b and 5g) , which would result in the decrease of whole SREBP1c protein levels and overcom e the effect on lipogenesis caused by APC activation of mTORC1. […]\nData are repres ented as mean ± SEM (n=4). *, p < 0.05; **, p< 0.01. pval ues wer e determined by one-way ANOVA followed Dunnett’s multiple comparisons test (Left).\nThe over-expr essed proteins FLAG- CREB and HA-CRTC2-171A were detected in the lysates of the luciferase reporter assay by immunoblotting (Right). […]"}, "[2]": {"conditions": "db/db mice, ip APC, ITT 0-120 min"}, "[3]": {"conditions": "db/db mice, ip APC, 15 min, n=6"}, "[4]": {"conditions": "db/db mice, ip APC, 30 min, n=6"}, "[5]": {"conditions": "db/db mice, ip APC, 60 min, n=6"}, "[6]": {"conditions": "db/db mice, ip APC, 120 min, n=6"}, "[7]": {"conditions": "db/db mice, ip APC, PTT 0-120 min"}},
  "note": "Several values for one entry are separate records, joined by “and”; a condition that tells them apart may be missing. Equal values may be shown once.",
  "data": [
    {"smiles": "CC(C)=CCc1cc(C=CC(=O)O)cc(CC=C(C)C)c1O", "note": "[APC, 3,5-diprenyl-4-hydroxycinnamic acid]", "values": [
      {"measurement": "IGTT, Mean Diff. APC - VEH", "setting": "[1]; db/db mice, 60 min", "value": -166.5},
      {"measurement": "IGTT, group mean (Mean 1, APC)", "setting": "[1]; db/db mice, 60 min, n=8", "value": 217.8},
      {"measurement": "IGTT, Mean Diff. APC - VEH", "setting": "[1]; db/db mice, 120 min", "value": -105},
      {"measurement": "IGTT, group mean (Mean 1, APC)", "setting": "[1]; db/db mice, 120 min, n=8", "value": 171},
      {"measurement": "AUC of ITT (Total Area), individual mice", "setting": "[1]; db/db mice, ip APC", "value": "528.6 and 524.4 and 533.7 and 561.3 and 514.8 and 472.5"},
      {"measurement": "AUC of ITT in db, difference between means (APC - VEH) ± SEM", "setting": "[1]; db/db mice, ip APC", "value": "-215.2 ± 51.46"},
      {"measurement": "AUC of PTT, individual mice", "setting": "[1]; db/db mice, ip APC", "value": "534.6 and 662.4 and 481.5 and 659.7 and 691.6 and 494.5"},
      {"measurement": "IGTT blood glucose", "setting": "[1]; db/db mice, ip APC, 0 mins, individual mouse, n=8", "value": "153 mg/dL and 144 mg/dL and 142.2 mg/dL and 138.6 mg/dL and 176.4 mg/dL and 127.8 mg/dL and 140.4 mg/dL and 113.4 mg/dL"},
      {"measurement": "IGTT blood glucose", "setting": "[1]; db/db mice, ip APC, 15 mins, individual mouse, n=8", "value": "477 mg/dL and 363.6 mg/dL and 334.8 mg/dL and 511.2 mg/dL and 419.4 mg/dL and 423 mg/dL and 480.6 mg/dL and 525.6 mg/dL"},
      {"measurement": "IGTT blood glucose", "setting": "[1]; db/db mice, ip APC, 30 mins, individual mouse, n=8", "value": "262.8 mg/dL and 450 mg/dL and 293.4 mg/dL and 275.4 mg/dL and 228.4 mg/dL and 228.6 mg/dL and 124.2 mg/dL and 385.2 mg/dL"},
      {"measurement": "IGTT blood glucose", "setting": "[1]; db/db mice, ip APC, 60 mins, individual mouse, n=8", "value": "205.2 mg/dL and 233.8 mg/dL and 221.4 mg/dL and 237.6 mg/dL and 329.4 mg/dL and 163.8 mg/dL and 135 mg/dL and 216 mg/dL"},
      {"measurement": "IGTT blood glucose", "setting": "[1]; db/db mice, ip APC, 120 mins, individual mouse, n=8", "value": "176.4 mg/dL and 270 mg/dL and 153 mg/dL and 138.6 mg/dL and 250.2 mg/dL and 133.2 mg/dL and 99 mg/dL and 147.6 mg/dL"},
      {"measurement": "ITT blood glucose, difference between column means (CT vs APC)", "setting": "[1]; [2]", "value": 51.32},
      {"measurement": "ITT blood glucose, mean over all time points (Mean of APC)", "setting": "[1]; [2]", "value": 134.7},
      {"measurement": "ITT blood glucose, Mean Diff. APC - CT", "setting": "[1]; db/db mice, ip APC, 0 min", "value": -52.47},
      {"measurement": "ITT blood glucose, individual mice", "setting": "[1]; db/db mice, ip APC, 0 min", "value": "178.2 mg/dL and 172.8 mg/dL and 156.6 mg/dL and 194.4 mg/dL and 190.4 mg/dL and 192.6 mg/dL"},
      {"measurement": "ITT blood glucose, group mean (Mean 1, APC)", "setting": "[1]; db/db mice, ip APC, 0 min, n=6", "value": 180.8},
      {"measurement": "ITT blood glucose, Mean Diff. APC - CT", "setting": "[1]; db/db mice, ip APC, 15 min", "value": -63.57},
      {"measurement": "ITT blood glucose, individual mice", "setting": "[1]; db/db mice, ip APC, 15 min", "value": "137.6 mg/dL and 129.6 mg/dL and 153 mg/dL and 133 mg/dL and 138.3 mg/dL and 126 mg/dL"},
      {"measurement": "ITT blood glucose, group mean (Mean 1, APC)", "setting": "[1]; [3]", "value": 136.3},
      {"measurement": "ITT blood glucose, Mean Diff. APC - CT", "setting": "[1]; db/db mice, ip APC, 30 min", "value": -56.08},
      {"measurement": "ITT blood glucose, individual mice", "setting": "[1]; db/db mice, ip APC, 30 min", "value": "101.2 mg/dL and 129.6 mg/dL and 115.2 mg/dL and 124.2 mg/dL and 128.4 mg/dL and 111.6 mg/dL"},
      {"measurement": "ITT blood glucose, group mean (Mean 1, APC)", "setting": "[1]; [4]", "value": 118.4},
      {"measurement": "ITT blood glucose, Mean Diff. APC - CT", "setting": "[1]; db/db mice, ip APC, 60 min", "value": -54.15},
      {"measurement": "ITT blood glucose, individual mice", "setting": "[1]; db/db mice, ip APC, 60 min", "value": "120.6 mg/dL and 115 mg/dL and 129.6 mg/dL and 138.6 mg/dL and 105.2 mg/dL and 91.8 mg/dL"},
      {"measurement": "ITT blood glucose, group mean (Mean 1, APC)", "setting": "[1]; [5]", "value": 116.8},
      {"measurement": "ITT blood glucose, Mean Diff. APC - CT", "setting": "[1]; db/db mice, ip APC, 120 min", "value": -30.35},
      {"measurement": "ITT blood glucose, individual mice", "setting": "[1]; db/db mice, ip APC, 120 min", "value": "160.2 mg/dL and 127.6 mg/dL and 115.2 mg/dL and 136.6 mg/dL and 95.3 mg/dL and 93.6 mg/dL"},
      {"measurement": "ITT blood glucose, group mean (Mean 1, APC)", "setting": "[1]; [6]", "value": 121.4},
      {"measurement": "PTT blood glucose, difference between column means (VEH vs APC)", "setting": "[1]; [7]", "value": 95.48},
      {"measurement": "PTT blood glucose, mean over all time points (Mean of APC)", "setting": "[1]; [7]", "value": 143.6},
      {"measurement": "PTT blood glucose, Mean Diff. APC - VEH", "setting": "[1]; db/db mice, ip APC, 0 min", "value": -59.27},
      {"measurement": "PTT blood glucose, individual mice", "setting": "[1]; db/db mice, ip APC, 0 min", "value": "156.6 mg/dL and 129.6 mg/dL and 131.4 mg/dL and 153 mg/dL and 147.6 mg/dL and 135.8 mg/dL"},
      {"measurement": "PTT blood glucose, group mean (Mean 1, APC)", "setting": "[1]; db/db mice, ip APC, 0 min, n=6", "value": 142.3},
      {"measurement": "PTT blood glucose, Mean Diff. APC - VEH", "setting": "[1]; db/db mice, ip APC, 15 min", "value": -65.02},
      {"measurement": "PTT blood glucose, individual mice", "setting": "[1]; db/db mice, ip APC, 15 min", "value": "142.2 mg/dL and 181.8 mg/dL and 156.6 mg/dL and 169.2 mg/dL and 180.5 mg/dL and 149.4 mg/dL"},
      {"measurement": "PTT blood glucose, group mean (Mean 1, APC)", "setting": "[1]; [3]", "value": 163.3},
      {"measurement": "PTT blood glucose, Mean Diff. APC - VEH", "setting": "[1]; db/db mice, ip APC, 30 min", "value": -106.5},
      {"measurement": "PTT blood glucose, individual mice", "setting": "[1]; db/db mice, ip APC, 30 min", "value": "135 mg/dL and 194.4 mg/dL and 126 mg/dL and 172.8 mg/dL and 163.7 mg/dL and 142.2 mg/dL"},
      {"measurement": "PTT blood glucose, group mean (Mean 1, APC)", "setting": "[1]; [4]", "value": 155.7},
      {"measurement": "PTT blood glucose, Mean Diff. APC - VEH", "setting": "[1]; db/db mice, ip APC, 60 min", "value": -119.1},
      {"measurement": "PTT blood glucose, individual mice", "setting": "[1]; db/db mice, ip APC, 60 min", "value": "124.2 mg/dL and 140.4 mg/dL and 99 mg/dL and 169.2 mg/dL and 201.6 mg/dL and 93.6 mg/dL"},
      {"measurement": "PTT blood glucose, group mean (Mean 1, APC)", "setting": "[1]; [5]", "value": 138},
      {"measurement": "PTT blood glucose, Mean Diff. APC - VEH", "setting": "[1]; db/db mice, ip APC, 120 min", "value": -127.5},
      {"measurement": "PTT blood glucose, individual mice", "setting": "[1]; db/db mice, ip APC, 120 min", "value": "109.8 mg/dl and 162 mg/dl and 68.4 mg/dl and 144 mg/dl (2×) and 82.8 mg/dl"},
      {"measurement": "PTT blood glucose, group mean (Mean 1, APC)", "setting": "[1]; [6]", "value": 118.5},
      {"measurement": "IGTT AUC, Total Area", "setting": "[1]; db/db mice, ip APC, individual mouse, n=8", "value": "1110 and 1254 and 997.2 and 1163 and 1191 and 945.9 and 859.5 and 1257"},
      {"measurement": "AUC of ITT in db, group mean", "setting": "[1]; db/db mice, ip APC, n=6", "value": 522.6},
      {"measurement": "AUC in PTT, mean of differences (APC - VEH)", "setting": "[1]; db/db mice, ip APC, paired t test, 6 pairs", "value": -383.9},
      {"measurement": "AUC of IGTT in db/db, group mean", "setting": "[1]; db/db mice, n=8", "value": 1097},
      {"measurement": "AUC of ITT, group mean", "setting": "[1]; mean of APC group, n=7", "value": 367.6},
      {"measurement": "CREB/CRTC2-mediated transcription of PER2", "setting": "mouse Per2 promoter", "value": "reduced"}
    ]}
  ]
}
